Experimental data published in BindingDB's records for doi:10.1021/ml400413c (Dart Neuroscience, 2013).

Experiments:
[1] = target: T1, Peroxisome proliferator-activated receptor gamma (Homo sapiens, UniProt P37231); assay: Agonist activity at human PPARgamma ligand binding domain expressed in monkey COS7 cells cotransfected with Gal4 by luciferase reporter gene assay
T1 sequence (P37231 whole entry): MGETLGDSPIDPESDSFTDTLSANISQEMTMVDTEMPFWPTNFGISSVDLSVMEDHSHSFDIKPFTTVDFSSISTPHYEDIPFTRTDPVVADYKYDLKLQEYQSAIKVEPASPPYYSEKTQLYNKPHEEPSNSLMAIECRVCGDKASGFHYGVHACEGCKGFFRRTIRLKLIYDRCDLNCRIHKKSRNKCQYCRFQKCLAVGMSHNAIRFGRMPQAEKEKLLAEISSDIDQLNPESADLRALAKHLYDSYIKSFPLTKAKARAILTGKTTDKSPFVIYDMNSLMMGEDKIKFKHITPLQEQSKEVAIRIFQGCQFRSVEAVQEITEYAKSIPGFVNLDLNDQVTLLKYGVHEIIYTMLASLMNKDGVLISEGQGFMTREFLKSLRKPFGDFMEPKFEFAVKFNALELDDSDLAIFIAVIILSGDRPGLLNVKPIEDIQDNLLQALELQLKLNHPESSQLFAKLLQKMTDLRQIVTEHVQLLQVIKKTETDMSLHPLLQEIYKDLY

[2] = target: T2, Peroxisome proliferator-activated receptor delta (Homo sapiens, UniProt Q03181); assay: Agonist activity at human PPARdelta ligand binding domain expressed in monkey COS7 cells cotransfected with Gal4 by luciferase reporter gene assay
T2 sequence (Q03181 whole entry): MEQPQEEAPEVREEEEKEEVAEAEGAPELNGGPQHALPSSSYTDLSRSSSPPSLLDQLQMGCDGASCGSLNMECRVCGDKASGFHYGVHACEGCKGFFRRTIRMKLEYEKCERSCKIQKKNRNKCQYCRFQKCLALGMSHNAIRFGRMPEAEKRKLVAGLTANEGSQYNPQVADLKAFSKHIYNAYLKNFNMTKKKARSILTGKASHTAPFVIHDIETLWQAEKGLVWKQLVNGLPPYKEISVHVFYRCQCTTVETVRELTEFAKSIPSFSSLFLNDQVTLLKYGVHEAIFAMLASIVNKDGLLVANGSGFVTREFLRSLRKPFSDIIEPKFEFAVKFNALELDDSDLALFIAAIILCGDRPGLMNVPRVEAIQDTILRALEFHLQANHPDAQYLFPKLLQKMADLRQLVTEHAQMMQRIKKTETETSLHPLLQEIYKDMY

CCOC(c1ccc(OC(F)(F)F)cc1)C1CC1c1cc(C)c(OC(C)(C)C(=O)O)c(C)c1 (stereo not drawn)
EC50 [1]: 39 nM

COC(c1ccc(Br)cc1)C1CC1c1cc(C)c(OC(C)(C)C(=O)O)c(C)c1 (stereo not drawn)
EC50 [2]: 54 nM
EC50 [1]: 19 nM
